The values that follow are results of earlier work, collected in patent US9433602B2, “Combination and composition for treating obesity” (LABORATORIOS SENOSIAIN S.A. DE C.V., priority 2010, dated 2016).

The subject of data set [1] is gastric and pancreatic lipases. Particulars: pharmacological effect of the drug.
Assay in data set [2]: not given
This is another data set of the same source.

For data set [3] the following is noted: humans, taken orally.

“And” between values parts separate entries of the source, which are not always exact repeats. Equal values may be shown once. Bounds are passed on as bounds.

As to `Oc1ccc(C=Cc2cc(O)cc(O)c2)cc1` [Resveratrol, 3,5,4′-trihydroxystilbene], the Solubility in water result was “insoluble in water”. In addition, for the setting “alcohol and methanol”, the “Solubility in alcohol and methanol” value was “soluble in alcohol and methanol”. For the same molecule, where the note is “hydrochloric acid 10%”, the “Solubility in hydrochloric acid 10%” value is reported as “insoluble in hydrochloric acid 10%”.

In the case of `CCCCCCCCCCC[C@@H](C[C@@H]1OC(=O)[C@H]1CCCCCC)OC(=O)[C@H](CC(C)C)NC=O` [orlistat], the Solubility in water entry is “insoluble in water”. Further, the Solubility in chloroform result (chloroform) is reported as “easily soluble in chloroform”. For the same molecule, the “Decrease of the absorption of ingested fat” value in data set [1] is on record as 30%. Also, in data set [2] (after single administration of 360 mg, normal weight and obese subjects), the “Plasma concentrations of intact orlistat” value is below 5 ng/mL. Further, the “Plasma concentrations in general” value in data set [2] (in general, no evidence of accumulation) was < 10 ng/ml and < 0.02 μM. Besides, the “Share of the fecally excreted dose that was unchanged orlistat” value in data set [2] (of the dose excreted in feces) was 83%. Also, the “Administered dose excreted in feces” value in data set [2] (people with normal weight or obese) is “Approximately 97%”.

For `Oc1ccc(/C=C/c2cc(O)cc(O)c2)cc1` [trans-resveratrol], in data set [3], the Bioavailability entry is given as “relatively low” and the Half-life result is given as “approximately 8 h”.
